This note sets out measurements from patent US9682961B2, “Quinazoline derivative” (CARNA BIOSCIENCES, INC., priority 2013, dated 2017).

The assay has as its system Wnt/β-catenin signaling pathway. As to the kind of experiment: TCF-luciferase reporter gene assay (Wnt-3a stimulated HEK 293 cells). The assay is classed as cell-based. The note with it: Homo sapiens, HEK293, Wnt-3a stimulation, read-out: Inhibitory activity against the Wnt/β-catenin signaling pathway. As to the method: Evaluation of inhibitory activity of the compounds of the present invention against the Wnt/β-catenin signaling pathway was performed by evaluating the inhibitory activity of the compounds of the present invention against the Wnt/β-catenin signaling pathway activated by the Wnt-3a ligand using a commercially available TCF-luciferase reporter gene assay system.
In a T75 flask, HEK 293 cells (ATCC No. CRL-1573) were added to a DMEM medium (manufactured by NACALAI TESQUE, INC., No. 08459-35) supplemented with 10% FBS (AusGeneX PTY LTD.) and 1% Penicillin/Streptomycin (NACALAI TESQUE, INC.). The cells in the flask were cultured in a 5% CO2 incubator.
The cultured HEK 293 cells were diluted with a DMEM medium supplemented with only 10% FBS so as to have a cell concentration of 2×10^5 cells/mL, and 100 μL each of the diluted cells were seeded into respective wells of 96-well plates (PerkinElmer Inc., ViewPlate No. 6005181), followed by culturing overnight in the 5% CO2 incubator. To an OptiMEM medium (Invitrogen® No. 11058), pGL4.49 [luc2p/TCF-LEF-RE/Hygro] plasmid DNA (Promega Corporation) and FuGENE® HD (Promega No. E2691) were added so as to have concentrations of 1 μg/mL and 3 μg/mL, respectively, to prepare a transfection solution as described in the protocol attached to the reagent. To the respective wells containing the HEK 293 cells cultured overnight, 100 μL each of the transfection solution was added gently, followed by culturing overnight in the 5% CO2 incubator to perform transfection.
To a DMEM medium, 0.5% charcoal/dextran treated Fetal Bovine Serum (Thermo Scientific No. SH30068.02) and LiCl (Sigma-Aldrich No. L9650) were added to prepare a LiCl-containing medium (final concentration of LiCl: 10 mM). The medium in the respective wells of the HEK 293 cells cultured overnight and transfected with a reporter gene was removed by decantation. The LiCl-containing medium (90 μL) was added gently to each well, followed by culturing overnight in the 5% CO2 incubator.
A DMSO stock solution of the compound to be tested was diluted 100-fold with a LiCl-containing medium so as to prepare a solution of the compound to be tested, which is 10 times the test concentration. Further, Recombinant Mouse Wnt-3a (R&D Systems, Inc. #1324-WN) was dissolved in a 0.1% BSA-PBA solution so as to have a concentration of 40 μg/mL, and the resultant solution was diluted with a LiCl-containing medium so as to have a concentration of 100 ng/mL, to prepare a Wnt-3a solution. To each well of the HEK 293 cells cultured overnight in the LiCl-containing medium, 10 μL each of the solution of the compound to be tested was added, followed by culturing in the 5% CO2 incubator for 2 hours (the final concentration of the compound to be tested: 3-0.03 μM). Thereafter, 10 μL each of the Wnt-3a solution was added to the respective wells, followed by further culturing for 5 hours.
Using ONE-Glo™ Luciferase Assay System (Promega Corporation, No. E6110), the luciferase activity of the cells in the wells was measured by a microplate reader (Synergy H1, BioTek Instruments, Inc.) An IC50 value was calculated from the luminescence intensity of each compound concentration, supposing that the luminescence intensity of a group with no addition of the compound and with Wnt-3a stimulation was 100%, and that the luminescence intensity of a group with no addition of the compound and with no Wnt-3a stimulation was 0%.
For orientation: In a reporter assay the amount or activity of a reporter protein is the signal.

A value given as a limit tells only on which side of the number the result lay.

Consider `O[C@H]1CC[C@@H](Oc2cccc3cnc(Nc4ccc5nc[nH]c5c4)nc23)CC1` [Example 1, cis-4-({2-[(1H-benzo[d]imidazol-6-yl)amino]quinazolyn-8-yl}oxy)cyclohexanol], for which the IC50 was under 300 nM.
